Data on 1 compound can be found in patent US8834840B1, “Magnetic resonance imaging of self-assembled biomaterial scaffolds” (Northwestern University, priority 2006, dated 2014).

Structures are written as SMILES.

A short description of this test: T1 measurements / MR imaging of PA gels at 9.4 T. The class given is physicochemical. Conditions: gel of 0.75 wt. % filler PA 1, agent mixed in at 0.1 mM Gd(III) (1 alone without Gd(III)), spin-echo. As to the method: FIG. 4 depicts results of T1 study of PA gels and mixed PA gels. The concentration of Gd(III) is 0.1 mM in all samples except a and the concentration of filler PA is […] in each case (all samples form self-supporting gels): a corresponds to compound 1 alone and is used as a standard, b refers to 1 mixed with DTPA, c refers to 1 mixed with compound 2, d refers to 1 mixed with compound 3, e through j are mixed with compound 3 and their structures are depicted above. Error bars represent one standard deviation.
Mixing PACAs 2 or 3 with filler PA 1 could be successfully imaged by MR (FIG. 3). The gels are homogeneous in image intensity throughout the samples, which implies uniform mixing of the PACA molecules within the filler PA at MR resolution. If heterogeneous mixing of PAs occur on a large enough scale, domains of bright and dark intensity would be observed. […] The gels were made using a 0.75 wt. % of filler PA. The PACA molecule was mixed into this solution before gelling as was the DTPA. Images were acquired using a spin-echo pulse sequence with TR 750 ms, TC 12 ms, slice thickness of 1 mm, FOV of 2 cm, at 9.4 T on an Oxford superconducting magnet and Bruker software. The T1 of these gels were measured at 3.03±0.05 s, 1.89±0.06 s, 1.08±0.06 s, and 2.81±0.05 s, respectively, the faster T1's resulting in higher contrast.
T1 Measurements. […]

Take `O=C(O)CN(CCN(CC(=O)O)CC(=O)O)CCN(CC(=O)O)CC(=O)O` [DTPA, diethylenetriaminepentaacetate]: the T1 of gels is 2.81 ± 0.05 s.
